Data: ChEMBL document CHEMBL1201862, “PubChem BioAssay data set” (2004)
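Where inhibition never reached the appropriate level, the endpoint shown equals the highest concentration tested. Otherwise, values were interpolated linearly from a five-concentration, 48-hour dose response in 96-well plates. GI50 = concentration required for 50% inhibition of growth.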 Activity calls are given as the source filed them. No stated cut-off is given here; in the data, active = GI50 up to about 1.1 µM and inactive = higher.

Columns and labels:
Assay in all cases: growth of human tumour cells (NCI), 48 h
MCF7 = system: MCF7
786-0 = system: 786-0
SNB-75 = system: SNB-75
MDA-N = system: MDA-N
MDA-MB-231 = system: MDA-MB-231
SK-OV-3 = system: SK-OV-3
PC-3 = system: PC-3
A498 = system: A498
MDA-MB-435 = system: MDA-MB-435
NCI-H460 = system: NCI-H460
NCI-H23 = system: NCI-H23
CAKI-1 = system: CAKI-1
CCRF-CEM = system: CCRF-CEM
DU-145 = system: DU-145
IGROV-1 = system: IGROV-1
M14 = system: M14
A549 = system: A549
OVCAR-8 = system: OVCAR-8
Malme-3M = system: Malme-3M
HOP-92 = system: HOP-92

Row | Structure (SMILES) | GI50 (MCF7) | GI50 (786-0) | GI50 (SNB-75) | GI50 (MDA-N) | GI50 (MDA-MB-231) | GI50 (SK-OV-3) | GI50 (PC-3) | GI50 (A498) | GI50 (MDA-MB-435) | GI50 (NCI-H460) | GI50 (NCI-H23) | GI50 (CAKI-1) | GI50 (CCRF-CEM) | GI50 (DU-145) | GI50 (IGROV-1) | GI50 (M14) | GI50 (A549) | GI50 (OVCAR-8) | GI50 (Malme-3M) | GI50 (HOP-92)
1 | Cc1cc(S(=O)(=O)Nc2nc(N)n(C)n2)c(S)cc1Cl | > 10 µM (inactive) | > 10 µM (inactive) | > 10 µM (inactive) | > 10 µM (inactive) | > 10 µM (inactive) | > 10 µM (inactive) | > 10 µM (inactive) | > 10 µM (inactive) | > 10 µM (inactive) | > 10 µM (inactive) | > 10 µM (inactive) | > 10 µM (inactive) | > 10 µM (inactive) | > 10 µM (inactive) | > 10 µM (inactive) | > 10 µM (inactive) | > 10 µM (inactive) | > 10 µM (inactive) | > 10 µM (inactive) | –
2 | N#CC1=C(N2CCOCC2)CCC1 | > 100 µM (inactive) | > 100 µM (inactive) | > 100 µM (inactive) | 52.6 µM (inactive) | > 100 µM (inactive) | > 100 µM (inactive) | > 100 µM (inactive) | > 100 µM (inactive) | > 100 µM (inactive) | – | > 100 µM (inactive) | > 100 µM (inactive) | > 100 µM (inactive) | > 100 µM (inactive) | > 100 µM (inactive) | > 100 µM (inactive) | > 100 µM (inactive) | > 100 µM (inactive) | > 100 µM (inactive) | –
3 | OCCCc1ccc2c(c1)[C@H](CO)[C@@H](c1ccc(O)cc1)O2 | > 100 µM (inactive) | > 100 µM (inactive) | > 100 µM (inactive) | 87.7 µM (inactive) | > 100 µM (inactive) | > 100 µM (inactive) | 50.4 µM (inactive) | > 100 µM (inactive) | 69.3 µM (inactive) | > 100 µM (inactive) | 35.8 µM (inactive) | – | 76 µM (inactive) | > 100 µM (inactive) | > 100 µM (inactive) | > 100 µM (inactive) | > 100 µM (inactive) | > 100 µM (inactive) | 13.8 µM (inactive) | > 100 µM (inactive)
4 | CN(C)c1cccc2c(S(=O)(=O)NCCCNCCN)cccc12 | – | 53.1 µM (inactive) | 13.6 µM (inactive) | 26.2 µM (inactive) | 41.5 µM (inactive) | 46.9 µM (inactive) | 44.2 µM (inactive) | 29.6 µM (inactive) | 27.4 µM (inactive) | 62.4 µM (inactive) | 82.4 µM (inactive) | > 100 µM (inactive) | 22.3 µM (inactive) | > 100 µM (inactive) | 67.9 µM (inactive) | 18.9 µM (inactive) | 66.5 µM (inactive) | – | 61.5 µM (inactive) | 34.4 µM (inactive)
5 | CCOC(=O)c1nnn(CCCCO)c1C(=O)OCC | > 100 µM (inactive) | > 100 µM (inactive) | > 100 µM (inactive) | > 100 µM (inactive) | > 100 µM (inactive) | – | > 100 µM (inactive) | – | > 100 µM (inactive) | > 100 µM (inactive) | > 100 µM (inactive) | > 100 µM (inactive) | > 100 µM (inactive) | > 100 µM (inactive) | > 100 µM (inactive) | – | > 100 µM (inactive) | > 100 µM (inactive) | > 100 µM (inactive) | > 100 µM (inactive)
6 | COc1cccc(-c2cc(O)c3cc(N4CCOCC4)ccc3n2)c1 | 0.0484 µM (active) | 0.0411 µM (active) | 0.0377 µM (active) | 0.0069 µM (active) | 0.13 µM (active) | – | 0.0364 µM (active) | – | 0.00834 µM (active) | 0.177 µM (active) | 0.0289 µM (active) | 0.0426 µM (active) | 0.0288 µM (active) | 0.038 µM (active) | 0.0575 µM (active) | – | 0.113 µM (active) | 0.0375 µM (active) | 0.0131 µM (active) | 0.0376 µM (active)
7 | CO[C@@]12C[C@@H](C)[C@]34O[C@H]3C[C@]3(C)O[C@]43CC1=C(C)C(=O)O2 | > 100 µM (inactive) | > 100 µM (inactive) | – | > 100 µM (inactive) | > 100 µM (inactive) | > 100 µM (inactive) | > 100 µM (inactive) | > 100 µM (inactive) | > 100 µM (inactive) | > 100 µM (inactive) | > 100 µM (inactive) | > 100 µM (inactive) | – | > 100 µM (inactive) | 38.8 µM (inactive) | > 100 µM (inactive) | > 100 µM (inactive) | > 100 µM (inactive) | > 100 µM (inactive) | > 100 µM (inactive)
8 | COc1cc(/C=C2\N=C(c3ccccc3)N(c3nc4ccccc4s3)C2=O)cc(OC)c1OC | 31.3 µM (inactive) | 24.8 µM (inactive) | 23.1 µM (inactive) | 15.3 µM (inactive) | 40.3 µM (inactive) | – | 50.5 µM (inactive) | 52.7 µM (inactive) | 15.6 µM (inactive) | 65.5 µM (inactive) | 31.1 µM (inactive) | 70.6 µM (inactive) | – | 34.1 µM (inactive) | 28.6 µM (inactive) | 31.4 µM (inactive) | 29.6 µM (inactive) | 31 µM (inactive) | – | 26.2 µM (inactive)
9 | C=CCOC1(CC=C)C(=O)OC2C(O)COC21O (centres undefined) | > 100 µM (inactive) | > 100 µM (inactive) | – | > 100 µM (inactive) | > 100 µM (inactive) | > 100 µM (inactive) | > 100 µM (inactive) | > 100 µM (inactive) | > 100 µM (inactive) | > 100 µM (inactive) | > 100 µM (inactive) | > 100 µM (inactive) | > 100 µM (inactive) | > 100 µM (inactive) | > 100 µM (inactive) | > 100 µM (inactive) | > 100 µM (inactive) | > 100 µM (inactive) | > 100 µM (inactive) | –
10 | O=C1Nc2ccccc2/C1=C/c1ccccc1 | 3.36 µM (inactive) | 13.8 µM (inactive) | 12.9 µM (inactive) | 17.7 µM (inactive) | 17.8 µM (inactive) | 28.8 µM (inactive) | 14.6 µM (inactive) | 13.5 µM (inactive) | 15.8 µM (inactive) | 15.5 µM (inactive) | 18.1 µM (inactive) | 29.2 µM (inactive) | 17.8 µM (inactive) | 13.8 µM (inactive) | 11.7 µM (inactive) | 16.7 µM (inactive) | 25.2 µM (inactive) | 18.8 µM (inactive) | – | 11 µM (inactive)
11 | CNC1=CC(=O)C2=C(C1=O)[C@H]1CC[C@]3(C)C(=O)CC[C@H]3[C@@H]1CC2 | 20.2 µM (inactive) | 17.3 µM (inactive) | 14.3 µM (inactive) | 8.17 µM (inactive) | 24.5 µM (inactive) | 43.6 µM (inactive) | 13.1 µM (inactive) | 22.2 µM (inactive) | 5.66 µM (inactive) | 18.5 µM (inactive) | 5.13 µM (inactive) | 13.6 µM (inactive) | 9.18 µM (inactive) | 15 µM (inactive) | 5.43 µM (inactive) | 13.5 µM (inactive) | 19.8 µM (inactive) | 9.71 µM (inactive) | – | 12 µM (inactive)
12 | COc1cc([C@H]2Oc3c(OC)cc(CCCO)cc3[C@@H]2CO)ccc1O [DIHYDRODEHYDRODICONIFERY ALCOHOL] | 37.2 µM (inactive) | > 100 µM (inactive) | 44.9 µM (inactive) | > 100 µM (inactive) | 27.2 µM (inactive) | > 100 µM (inactive) | > 100 µM (inactive) | 50.6 µM (inactive) | > 100 µM (inactive) | > 100 µM (inactive) | 54.5 µM (inactive) | – | > 100 µM (inactive) | > 100 µM (inactive) | > 100 µM (inactive) | > 100 µM (inactive) | > 100 µM (inactive) | > 100 µM (inactive) | > 100 µM (inactive) | 89.5 µM (inactive)
13 | Cc1c(NC(=O)CSC(=S)N2CCN(Cc3ccccc3)CC2)c(=O)n(-c2ccccc2)n1C | > 100 µM (inactive) | > 100 µM (inactive) | – | > 100 µM (inactive) | > 100 µM (inactive) | > 100 µM (inactive) | > 100 µM (inactive) | – | > 100 µM (inactive) | > 100 µM (inactive) | > 100 µM (inactive) | > 100 µM (inactive) | > 100 µM (inactive) | > 100 µM (inactive) | > 100 µM (inactive) | > 100 µM (inactive) | > 100 µM (inactive) | > 100 µM (inactive) | > 100 µM (inactive) | –
14 | Cc1nn(C(=O)c2ccncc2)c2c1C(c1ccc(Cl)cc1)SC(=N)N2 (centres undefined) | > 10 µM (inactive) | > 10 µM (inactive) | > 10 µM (inactive) | > 10 µM (inactive) | > 10 µM (inactive) | – | > 10 µM (inactive) | – | > 10 µM (inactive) | > 10 µM (inactive) | > 10 µM (inactive) | > 10 µM (inactive) | > 10 µM (inactive) | > 10 µM (inactive) | > 10 µM (inactive) | > 10 µM (inactive) | > 10 µM (inactive) | > 10 µM (inactive) | > 10 µM (inactive) | > 10 µM (inactive)
15 | O=C(O)c1ccc(Nc2cnc3cc(C(F)(F)F)ccc3n2)cc1 | 38 µM (inactive) | 67.6 µM (inactive) | 35.6 µM (inactive) | 53.8 µM (inactive) | 36.7 µM (inactive) | – | 80.7 µM (inactive) | – | 43.5 µM (inactive) | 36.1 µM (inactive) | 46.5 µM (inactive) | > 100 µM (inactive) | 57.9 µM (inactive) | 58.5 µM (inactive) | 25.3 µM (inactive) | – | 42 µM (inactive) | 52.1 µM (inactive) | 29.5 µM (inactive) | –
